The results in this text go back to ChEMBL document CHEMBL1139733, “Aminopyridine carboxamides as c-Jun N-terminal kinase inhibitors: targeting the gatekeeper residue and beyond” (Bioorg Med Chem Lett, 2006).

pIC50: −log10 of the molar value.

Broadly, the pIC50 is −log10 of the IC50, conventionally taken in molar units. By IC50 is commonly meant the concentration needed to halve the response being measured. A high value points to weaker potency in that assay.

For experiment [1], the target named is Mitogen-activated protein kinase 9 (Homo sapiens, UniProt P45984). As to the kind of experiment: Inhibition of JNK2 by ATF2 phosphorylation assay. It counts as functional.
The target of experiment [2] is Mitogen-activated protein kinase 8 (Homo sapiens, UniProt P45983). As to the kind of experiment: Inhibition of JNK1 by ATF2 phosphorylation assay. Type of experiment: functional.
For experiment [3], the target named is c-Jun N-terminal kinase, JNK (Homo sapiens, UniProt P45983+P53779+P45984). As to the kind of experiment: Inhibition of PcJun phosphorylation in HepG2 cells. It counts as functional, cell-based.

Mitogen-activated protein kinase 8, sequence (P45983 whole entry): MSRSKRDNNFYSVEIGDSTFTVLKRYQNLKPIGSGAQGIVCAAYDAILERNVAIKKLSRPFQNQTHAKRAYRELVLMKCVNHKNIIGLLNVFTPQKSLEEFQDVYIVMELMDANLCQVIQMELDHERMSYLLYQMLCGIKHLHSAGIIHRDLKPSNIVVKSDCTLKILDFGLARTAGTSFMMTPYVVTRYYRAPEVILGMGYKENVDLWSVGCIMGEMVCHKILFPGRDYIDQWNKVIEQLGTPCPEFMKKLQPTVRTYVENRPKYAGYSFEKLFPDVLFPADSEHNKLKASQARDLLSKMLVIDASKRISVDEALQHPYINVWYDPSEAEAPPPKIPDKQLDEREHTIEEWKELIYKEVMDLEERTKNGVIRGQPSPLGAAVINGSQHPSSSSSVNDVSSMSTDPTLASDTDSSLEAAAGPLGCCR
Mitogen-activated protein kinase 9, sequence (P45984 whole entry): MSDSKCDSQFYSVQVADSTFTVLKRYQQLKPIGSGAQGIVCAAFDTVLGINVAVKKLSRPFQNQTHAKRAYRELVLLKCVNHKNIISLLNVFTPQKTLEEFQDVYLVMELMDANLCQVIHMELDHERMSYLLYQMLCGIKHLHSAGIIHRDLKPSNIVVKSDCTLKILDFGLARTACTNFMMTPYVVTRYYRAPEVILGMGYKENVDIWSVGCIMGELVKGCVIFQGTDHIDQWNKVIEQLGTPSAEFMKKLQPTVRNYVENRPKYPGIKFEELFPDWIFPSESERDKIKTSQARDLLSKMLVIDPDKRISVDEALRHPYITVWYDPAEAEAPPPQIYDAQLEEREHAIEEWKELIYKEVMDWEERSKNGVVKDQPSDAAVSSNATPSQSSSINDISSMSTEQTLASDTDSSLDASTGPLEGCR

Turning to `CCOc1nc(C(=O)NCc2ccc(S(C)(=O)=O)cc2)cc(N)c1C#CCCO`, the negative-log IC50 (pIC50) in experiment [1] is 5.34; in experiment [2], 5.65. The same compound yielded an IC50 in experiment [3] of 7.36 µM.
